This is an account of results in PubChem BioAssay (NCI).

Values joined by “and” are separate entries in the source; they are usually repeats but may differ in a detail not shown here. Identical values can stand only once.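 These data come from cells grown in 96-well plates and exposed to compound for 48 hours at five concentrations. GI50 = concentration required for 50% inhibition of growth. TGI marks complete inhibition of growth.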

Holding throughout (experiment): NCI tumour cell line growth inhibition, 48 h
Test [1] has as its system HCC-2998 colon.
Test [2] relates to HS 578T breast.
Test [3] has as its system MDA-N.
Test [4] deals with DLD-1 colon.
For test [5], the system named is DMS 114 small cell lung.
For test [6], the system named is DMS 273 small cell lung.
Test [7] has as its system KM20L2 colon.
The test system of test [8] is LXFL 529 NSCLC.
The subject of test [9] is M19-MEL melanoma.

`CCCCCCCCCCCCCCCCCCNC(=O)C(N)Cc1ccc(OCc2ccccc2)cn1` (centres undefined): the results for the TGI in test [1], in test [2] and in [3] were 24.2 µM, 51.1 µM and 49.2 µM, respectively.

As for `N#Cc1c(-c2ccccc2)cc(-c2ccccc2)n(C2OC(CO)C(O)C(O)C2O)c1=S` (centres undefined), the GI50 in test [1] is 26.4 µM and 93.8 µM. Further, the TGI in test [1] is 91 µM and > 100 µM; in test [2], 64.4 µM and > 100 µM; in [3], 60.5 µM and > 100 µM.

Regarding `[N-]=[N+]=Nc1ccccc1C(=O)N1C(=O)c2ccccc2C(=O)N(C(=O)c2ccccc2N=[N+]=[N-])c2ccccc21`, the TGI in [1], in test [2] and in test [3] was above 100 µM throughout.

Turning to `O=C1/C(=C/c2cccc(Br)c2)CCc2ccccc21`, the TGI in test [2] was determined as 24.8 µM; in test [3], 24.5 µM.

For the molecule `O=C(O)c1nc2cc(C(F)(F)F)ccc2nc1Nc1ccc(F)cc1`, the TGI in [2] was 74.3 µM; in [3] it was 91 µM.

For the molecule `C=CCN1C(=O)/C(=C/c2ccco2)N=C1SC/C=C/C`, the TGI in test [1] is above 100 µM; in test [2] it was above 100 µM; in [3], 77.5 µM.

Turning to `CNc1ncnc2c1ncn2C1C=CC(COS(N)(=O)=O)C1` (centres undefined), the TGI in test [1], in [2] and in test [3] was above 100 µM each time.

`Cn1c(=O)c(Br)c(C=O)n(CCO[N+](=O)[O-])c1=O`: the figures for the TGI in test [1], in test [2] and in test [3] were 32 µM, above 100 µM and 17.3 µM, respectively.

Regarding `O=C1/C(=C\c2ccc(O)cc2)CCC/C1=C/c1ccc(Cl)c(Cl)c1`, the results for the TGI in [1], in [2] and in test [3] were 5.94 µM, 21.5 µM and 8.01 µM, respectively.

`C1=NCCN2CCN(CCN=Cc3ccc(cc3)OCc3cccc(n3)COc3ccc1cc3)CC2`: the TGI in test [2] is above 50 µM.

As to `COCCOC(=O)c1c(C)n([O-])c2cc(Cl)c(Cl)cc2[n+]1=O`, the TGI in test [2] and in test [3] was above 100 µM each time.

With `Cc1csc2c(=O)n(C3OC(CO)C(O)C3O)c(=O)[nH]c12` (centres undefined), the TGI in test [2] and in [3] was above 100 µM each time.

For `CCc1n[nH]c(=O)n1/N=C/c1c(O)ccc2ccccc12`, the TGI in test [1] and in test [3] was above 100 µM in each case.

Turning to `C=C(C)C1=CCC[C@]2(C1)N=C(OC)[C@@H](C(C)C)N=C2OC`, the TGI in [1], in test [2] and in [3] was above 100 µM throughout.

`Cn1c2ccccc2n2c(N=O)c(-c3ccccc3)nc12`: the results for the TGI in [1], in [2] and in test [3] were 28.3 µM, above 100 µM and above 100 µM, respectively.

Regarding `Cc1csc2[n+]1C(=O)/C(=C\c1ccc([N+](=O)[O-])cc1)S2`, the TGI in [1] stood at 43.9 µM; in [2] it was 74.3 µM; in [3], 75.2 µM.

In the case of `Clc1ccc(NCc2nnc(CCCCCCCCc3nnc(CNc4ccc(Cl)cc4)o3)o2)cc1`, the TGI in [1], in [2] and in test [3] was above 100 µM in each case.

Turning to `Cn1c2ccccc2c2c(-c3ccccc3)cc3c(c21)C(=O)C=CC3=O`, the TGI in test [1] is above 8.05 µM; in [2] it was 9.62 µM; in [3], above 7.18 µM.

As to `COC(=O)c1ccc(C)cc1CC1Cc2cc(C)ccc2C1=O` (centres undefined), the TGI in test [1], in test [2] and in test [3] was above 100 µM throughout.

For `O=C1/C(=C/c2cccc(F)c2)CCCc2ccccc21`, the TGI in test [1] came out at 27.8 µM; in test [2], 28.5 µM.

For `COC(=O)C1(C(=O)OC)Cc2ccc(OC)cc2C2=C1C(=O)c1ccccc1C2=O`, the TGI in test [1] was found to be 37.6 µM; in [2], 50.4 µM; in test [3], 3.36 µM.

On to `CN(C)Nc1cc(=O)[nH]c(=O)[nH]1`, for which the TGI in test [1] and in [3] was above 100 µM in each case.

Regarding `NC(N)=N/N=C/c1c(-c2ccc(Cl)cc2)nc2sccn12`, the TGI in test [1] is 2.74 µM; in [2], 37.6 µM; in [3], 3.33 µM.

Take `COC1=C(OC)C(=O)C(Cc2c(Cl)nc3sc(C)cn23)=C(C)C1=O`: the results for the TGI in test [1], in test [2] and in test [3] were 39 µM, 66.4 µM and 32.8 µM, respectively.

Take `COc1ccc(-c2c(C#N)c(N)n(C3OCC(OC(C)=O)C(OC(C)=O)C3OC(C)=O)c(=S)c2C#N)cc1` (centres undefined): the TGI was 60.9 µM and > 100 µM in test [1]; above 100 µM in test [2]; above 100 µM in test [3]. Besides, in [2], the GI50 is 33.5 µM and 76.2 µM.

Turning to `C=CCNC(=O)NC(=O)CSC1=NNC2(C(=O)N1)c1ccccc1-c1ccccc12`, the TGI in [1], in [2] and in [3] was above 10 µM throughout.

On to `C=CCNC1=C2C[C@@H](C)C[C@@H](OC)[C@H](OC(=O)CCN)[C@H](C)/C=C(\C)[C@@H](OC(N)=O)[C@H](OC)/C=C\C=C(/C)C(=O)NC(=CC1=O)C2=O`, for which the values for the TGI in test [1], in [2] and in test [3] were 3.61 µM, 52.9 µM and 11.2 µM, respectively.

In the case of `COC(=O)[C@@H]1CN(C(C)=O)C(=O)N1`, the TGI in test [1], in test [2] and in test [3] was above 100 µM throughout.

With `O=C1c2cc(Cl)ccc2-n2cnnc2C2CSCN12` (centres undefined), the TGI in test [1], in test [2] and in test [3] was above 100 µM in each case.

For `C=CCN1C(=O)C=C(c2ccccc2)n2ncc3cccc1c32`, the TGI in test [2] and in test [3] was above 100 µM each time.

Regarding `CCOc1cc(NC(C)=O)ccc1C(=O)NN1C(=O)C(Cl)C1c1ccccc1` (centres undefined), the TGI in test [1] was 32.3 µM; in [2], 83.1 µM; in test [3], 32.9 µM.

In the case of `O=c1oc2ccc3ccccc3c2cc1-c1cn2ccccc2n1`, the TGI in test [1], in [2] and in test [3] was above 100 µM throughout.

In the case of `CCOC(=O)P(=O)(O)c1ccc(N(C)Cc2ccccc2)cc1`, the TGI in test [1], in test [2] and in test [3] was above 100 µM in each case.

`O=S1(=O)N=C(SCc2ccccc2)N(c2ccccc2)c2ccncc21`: the TGI is above 100 µM in test [1], 83.4 µM in [2] and 89.6 µM in [3].

Take `CCOP(=O)(OCC)/C(C#N)=C/c1ncc[nH]1`: the TGI in [1], in [2] and in [3] was above 100 µM each time.

As to `O=C1NC2ON=C(c3ccccc3)C2C2ON=C(c3ccccc3)N12` (centres undefined), the TGI in [1], in [2] and in [3] was above 100 µM throughout.

Regarding `CCOC(=O)c1cccn1S(=O)(=O)c1cc(Cl)ccc1NC(=O)CC`, the TGI in [2] was above 100 µM.

As for `O=C1CCC2C(O)c3cc4c(cc3C(c3ccc5c(c3)OCO5)N12)OCO4` (centres undefined), the results for the TGI in [1], in test [2] and in test [3] were above 100 µM, 81.7 µM and above 100 µM, respectively.

For `COC1(OC)c2no[n+]([O-])c2CCC1O` (centres undefined), the TGI in test [1], in test [2] and in [3] was above 100 µM in each case.

For the molecule `CCc1c2c([nH]c(=S)c1C#N)CCC2`, the TGI in test [1], in test [2] and in test [3] was above 100 µM in each case.

Consider `CCOC(CN(C)C(=O)Nc1cccc2ccccc12)OCC`, for which the TGI in test [1], in test [2] and in test [3] was above 10 µM throughout.

On to `Cc1cc2c(cc1-c1cc3c(cc1C)C(C(C)C)=C(O)C(=O)/C3=C\Nc1c3ccccc3nc3ccccc13)/C(=C/Nc1c3ccccc3nc3ccccc13)C(=O)C(O)=C2C(C)C`, for which the TGI worked out at 21 µM in test [2] and 15.8 µM in test [3].

For `COc1ccc2[nH]cc(CCNC(=O)[C@H](Cc3ccccc3)NC(=O)[C@@H](NCC(F)(F)F)C(C)C)c2c1`, the TGI in [2] worked out at 39.6 µM; in test [3] it was 34 µM.

In the case of `O=C1/C(=C/c2ccccc2O)N=C(c2ccccc2)N1C1Nc2cc3c(cc2S1)NC(N1C(=O)/C(=C/c2ccccc2O)N=C1c1ccccc1)S3` (centres undefined), the TGI in test [1], in test [2] and in [3] was above 100 µM in each case.

`COc1cc(O)c2c(=O)cc(-c3ccc(O)cc3O)oc2c1CC=C(C)C`: the figures for the TGI in test [2] and in test [3] were above 100 µM and 61.5 µM, respectively.

For the molecule `O=C(NC1=NCC(CN2CCN(c3ccccc3)CC2)O1)Nc1ccccc1` (centres undefined), the TGI in test [1], in test [2] and in test [3] was above 100 µM each time.

Regarding `O=c1c2c(oc3ccccc13)-c1ccccc1OC2`, the TGI in test [1] and in test [3] was above 100 µM throughout.

With `Cc1cc2ccccc2n2c1nc1ccccc12`, the TGI in test [1], in test [2] and in [3] was above 100 µM throughout.

For `CNC1=C(C)C(=O)C(=O)C([C@H](C)CCC=C(C)C)=C1O`, the TGI in test [1] was 99.3 µM; in test [2], above 91.8 µM; in [3], above 100 µM.

On to `CC(C)OC(=O)c1ccc(NCc2cc(O)ccc2O)cc1Cl`, for which the TGI in [1] was 17.3 µM; in test [2], above 100 µM; in test [3], 22.6 µM.

For the molecule `CS(=O)(=O)c1nc(-c2cc3c(c(S(C)(=O)=O)n2)CCC3)cc2c1CCCCC2`, the results for the TGI in test [1], in [2] and in test [3] were above 100 µM, 40 µM and above 100 µM, respectively.

For the molecule `O=C(Nc1ccc(Cl)cc1)NS(=O)(=O)c1coc2cc(F)ccc2c1=O`, the TGI in [1], in [2] and in test [3] was above 100 µM throughout.

Consider `CSc1nc(C#N)c(/N=C\N(C)C)n1C`, for which the TGI in test [2] and in [3] was above 100 µM each time.

As to `COC(=O)/C=C(/C)n1nc2ccccc2n1`, the TGI in test [1], in test [2] and in test [3] was above 100 µM in each case.

As to `N#Cc1c(N)nc(-c2ccc(Cl)cc2)c2c1-c1ccccc1S(=O)(=O)CC2`, the TGI in test [1], in test [2] and in [3] was above 100 µM throughout.

On to `O=C(CC(=O)N(C(=O)/C=C\c1ccccc1)c1ccc(Cl)cc1)N1N=C(c2ccccc2)C(N=Nc2cccc([N+](=O)[O-])c2)C1=O` (centres undefined), for which the results for the TGI in test [1], in test [2] and in [3] were above 100 µM, 75.1 µM and above 100 µM, respectively.

`C(=C\c1cccs1)/c1cccc(/C=C/c2cccs2)n1`: the TGI in test [1] and in test [3] was above 100 µM in each case.

For `CNS(=O)(=O)NN(C)S(=O)(=O)c1ccccc1`, the TGI in test [4], in [5], in test [6], in [1], in test [7] and in test [8] was above 100 µM throughout. In test [9], this molecule returned a TGI above 100 µM.

On to `C=CCOc1cccc(C2(O)c3ccccc3C3=NCCCN32)c1` (centres undefined), for which the TGI in [1] is 29.6 µM; in test [2] it was above 78.4 µM; in [3], 33.1 µM.

Consider `COC(=O)C1(CCC(C)=O)CCCCCC1=O` (centres undefined), for which the TGI in test [1] and in test [3] was above 100 µM in each case.

For the molecule `O=C1C(Cl)C2(CC(/C=C/c3ccccc3Cl)=NN2c2cccc(S(=O)(=O)O)c2)N1c1nc2ccccc2s1` (centres undefined), the TGI in test [1], in test [2] and in test [3] was above 100 µM throughout.

Regarding `O=[N+]([O-])/C(C(Cl)=C(Cl)Cl)=C(\N1CCOCC1)n1nnc2ccccc21`, the TGI in test [3] was 42.5 µM.

On to `O=C1CCCCC/C1=C\c1cccc(Cl)c1`, for which the results for the TGI in test [1], in test [2] and in test [3] were above 100 µM, 94.3 µM and above 100 µM, respectively.
